The values that follow come from patent US20200236959A1, “METHOD FOR ANTI-SPROUTING TUBER TREATMENT WITH REDUCED AMOUNT OF CIPC” (priority 2014, published 2020).

The test system of one assay is potatoes. To be noted: hot fogging; cited from earlier work.
Assay [1] deals with potatoes of the variety Bintje. Briefly: Fogging trial in potato storage cabins, sprout index (PCA scale). It counts as in vivo, Solanum tuberosum. The following applies: fogging every 3 weeks during storage, PCA scale 1-9. On the procedure: The storage system was designed to duplicate a large commercial storage facility in miniature. It consisted of 4 test cabins, with room for 4 boxes per level. In total there were 7 levels, and the boxes were placed in a stair-pattern, in clock-wise direction. Each cabin could be used to store up to 560 kg of potatoes per cabin. The dimensions of a cabin are depicted in FIG. 1.
During storage the air temperature within the storage system was kept between 5.0° C. and 9.5° C. The relative humidity was kept between 87% and 100%.
The application equipment used for hot fogging was IGEBA TF-35. The application equipment used for cold fogging was VEUGEN, type: FOGCOL. The operation pressure was 3.3 bar. […]
Around 15 minutes before treatment, Automatic Regulation was switched off and Manual Internal Ventilation was switched on (Force III). […] Note: Ventilation Force III means ˜900 m^3/h. • As the exact weight of tubers in the cell was known, the exact quantity of formulated product was calculated and prepared. • During spraying/fogging and till around 15 minutes after spraying, Internal • Ventilation was kept switched on (Force III) to assure a good contact between product and tubers. • Around 15 minutes after spraying, Internal Ventilation was switched off • The day after (minimum 12 hours after end of spraying) Automatic Regulation was switched on till next application or till end of trial […]

For the compound `C=C(C)C1CC=C(C)C(=O)C1` (centres unmarked) [carvone], the “anti-sprouting efficacy in combination with CIPC” value in the assay on potatoes is recorded as “good result”.
As for `C=C(C)C1CC=C(C)CC1` (centres unmarked) [Limonene, 1-methyl-4-(1-methylethenyl)-cyclohexene], in assay [1], the “sprout growth (sprout index, FIG. 2)” value is given as “did not have any effect on sprout growth”.
